Tests used:
mdx^5cv mice [1] = test: Quadriceps strength and susceptibility to injury; assay type: in vivo, mouse
Source text: (§1) All animal experiments were approved by the Institutional Animal Care and Use Committee (IACUC) of The Johns Hopkins University, School of Medicine (Baltimore, Maryland). Mdx^5cv (B6Ros.Cg-Dmdmdx-5Cv/J) were obtained from The Jackson Laboratory. Mice were maintained in a 12-h light cycle (7 am-7 pm) with ad libitum access to food and water. […] Ginsenoside Rd was suspended in saline containing 10% 1,3-propanediol as vector.
In vivo muscle physiology. Quadriceps strength (maximal isometric torque) and susceptibility to injury were assessed in vivo as described (69, 70). Briefly, animals were anaesthetized with 3-5% isoflurane and placed in a supine position. The thigh was stabilized and the ankle was secured on to a lever arm. The knee was aligned with the axis of the stepper motor (model T8904, NMB Technologies, Chatsworth, CA, USA) and a torque sensor (QWFK-8M, Sensotec, Columbus, OH, USA), and the femoral nerve was stimulated via subcutaneous needle electrodes. A custom program based on commercial software (LabView version 8.5, National Instruments, Austin, TX, USA) was used to synchronize contractile activation and the onset of forced knee flexion. The position of the leg that results in optimal muscle length has been previously described and maximum isometric torque was measured in Newton-millimeters (Nmm). Injury was induced by 15 forced lengthenings (knee flexion) superimposed onto maximal quadriceps contractions through a 40-100 degree arc of motion (with full knee extension considered 0 deg) spaced 1 min apart. Loss in maximal isometric torque was measured 5 min after the last lengthening contraction. Since the knee position, lever arm, and moment arm of the muscle are unchanged between tests, maximal isometric torque reflects maximal isometric muscle force.

FLT3 signaling pathway = settings: 5 μM, 24 h
Source text: Triplicate samples were used in microarray analysis. […] RNA was isolated using TRIzol (Invitrogen Life Technologies, Carlsbad, CA) followed by purification and DNase digestion using RNeasy mini kits (Qiagen, Venlo, Netherlands) according to manufacturer's instructions. […] Generation of sense strand cDNA from purified total RNA was followed by second strand synthesis, in vitro transcription cDNA synthesis, and single stranded cDNA synthesis and RNA hydrolysis. Fragmentation and labelling were performed according to manufacturer's instructions (GeneChip WT Plus reagent kit, Affymetrix, Santa). RNA extraction and qPCR were performed according to previous protocols, and primers are included in Table 1. The microarray data has been deposited in NCBI's Gene Expression Omnibus database and is accessible through the GEO series accession number GSE121023.

mdx^5cv mice [2] = test: Masson's trichrome fibrosis in diaphragm muscle; assay type: in vivo, mouse; settings: ip, 10 mg/kg, 1344 h
Source text: as §1
Gastrocnemius, tibialis anterior, and diaphragm muscles were embedded in OCT, frozen in isopentane, and cross-sectioned (˜2-10 μm thickness). The sections were also stained with DAPI to visualize nuclei. In mice where Evans blue dye (EBD, 10 mg/ml) was used to evaluate membrane damage, EBD was injected at 0.05 ml/10 g intraperitoneally, 24 hours before sacrificing the mice. To evaluate EBD staining, gastrocnemius muscle sections were fixed with acetone and imaged with fluorescence microscopy. The area of EBD as a percentage of total area was calculated. To evaluate the number of central nucleated fibers, sections of the tibialis anterior muscle were stained with hematoxylin and eosin. Central nucleated fiber number was counted and analyzed against total fiber number. Diaphragm sections (10 μm) were stained with Masson's trichrome to determine collagen content. The stained areas were quantified against the total area.

Structure (SMILES): CC(C)=CCC[C@](C)(O[C@@H]1O[C@H](CO)[C@@H](O)[C@H](O)[C@H]1O)[C@H]1CC[C@]2(C)[C@@H]1[C@H](O)C[C@@H]1[C@@]3(C)CC[C@H](O[C@@H]4O[C@H](CO)[C@@H](O)[C@H](O)[C@H]4O[C@@H]4O[C@H](CO)[C@@H](O)[C@H](O)[C@H]4O)C(C)(C)[C@@H]3CC[C@]12C [ginsenoside Rd]
- loss in muscle force after contraction-induced injury, quadriceps (mdx^5cv mice [1]): 56±4.8%
- maximal isometric force generated by quadriceps muscle (mdx^5cv mice [1]; compared with sham control): no significant difference
- ingenuity pathway analysis z-score, FLT3 signaling pathway (FLT3 signaling pathway): > 2
- reduction of levels of fibrosis in diaphragm (mdx^5cv mice [2]): 29%

Reference: patent US12169196B2, “Human iPSC-based drug testing platform for muscular dystrophy” (The Johns Hopkins University, priority 2019, dated 2024)
